# Reference: BindingDB's records for doi:10.1016/j.bmc.2009.11.019 (Istituto Di Ricerche Chimiche E Biochimiche G. Ronzoni, 2010)
# Experiment: Inhibition of integrin alphaV receptor-mediated adhesion of human PC3 cells to vitronectin after 1 hr by toluidine blue staining
row,SMILES,IC50 [µM]
1,"CC[C@@]1(O)C(=O)OCc2c1cc1n(c2=O)Cc2c-1nc1ccccc1c2/C=N/OCCNC(=O)COCCOCCOCC(=O)NCc1ccc(C[C@@H]2NC(=O)[C@@H](Cc3ccccc3)NC(=O)[C@H](CC(=O)O)NC(=O)CNC(=O)[C@H](CCCN=C(N)N)NC2=O)cc1 [2-[(2S,5R,8S,11S)-5-benzyl-11-(3-carbamimidamidopropyl)-8-{[4-({2-[2-(2-{[(2-{[(E)-{[(19S)-19-ethyl-19-hydroxy-14,18-dioxo-17-oxa-3,13-diazapentacyclo[11.8.0.0^{2,11}.0^{4,9}.0^{15,20}]henicosa-1(21),2,4,6,8,10,15(20)-heptaen-10-yl]methylidene}amino]oxy}ethyl)carbamoyl]methoxy}ethoxy)ethoxy]acetamido}methyl)phenyl]methyl}-3,6,9,12,15-pentaoxo-1,4,7,10,13-pentaazacyclopentadecan-2-yl]acetic acid]",8.3
2,"NC(N)=NCCC[C@@H]1NC(=O)C(c2ccc(CNC(=O)COCCOCCOCC(=O)O)cc2)NC(=O)[C@@H](Cc2ccccc2)NC(=O)[C@H](CC(=O)O)NC(=O)CNC1=O (stereo partly drawn) [1-(4-((5S,11S,14R)-14-benzyl-11-(carboxymethyl)-5-(3-guanidinopropyl)-3,6,9,12,15-pentaoxo-1,4,7,10,13-pentaazacyclopentadecan-2-yl)phenyl)-3-oxo-5,8,11-trioxa-2-azatridecan-13-oic acid]",18.8
3,"CC[C@@]1(O)C(=O)OCc2c1cc1n(c2=O)Cc2c-1nc1ccccc1c2/C=N/OCCNC(=O)CCC(=O)NCc1ccc(C[C@@H]2NC(=O)[C@@H](Cc3ccccc3)NC(=O)[C@H](CC(=O)O)NC(=O)CNC(=O)[C@H](CCCN=C(N)N)NC2=O)cc1 [2-[(2S,5R,8S,11S)-5-benzyl-11-(3-carbamimidamidopropyl)-8-{[4-({3-[(2-{[(E)-{[(19S)-19-ethyl-19-hydroxy-14,18-dioxo-17-oxa-3,13-diazapentacyclo[11.8.0.0^{2,11}.0^{4,9}.0^{15,20}]henicosa-1(21),2,4,6,8,10,15(20)-heptaen-10-yl]methylidene}amino]oxy}ethyl)carbamoyl]propanamido}methyl)phenyl]methyl}-3,6,9,12,15-pentaoxo-1,4,7,10,13-pentaazacyclopentadecan-2-yl]acetic acid]",> 100
4,"CC[C@@]1(O)C(=O)OCc2c1cc1n(c2=O)Cc2c-1nc1ccccc1c2/C=N\OCCNC(=O)CCC[C@@H]1NC(=O)[C@@H](Cc2ccccc2)NC(=O)[C@H](CC(=O)O)NC(=O)CNC(=O)[C@H](CCCN=C(N)N)NC1=O [2-[(2S,5R,8S,11S)-5-benzyl-11-(3-carbamimidamidopropyl)-8-{3-[(2-{[(Z)-{[(19S)-19-ethyl-19-hydroxy-14,18-dioxo-17-oxa-3,13-diazapentacyclo[11.8.0.0^{2,11}.0^{4,9}.0^{15,20}]henicosa-1(21),2,4,6,8,10,15(20)-heptaen-10-yl]methylidene}amino]oxy}ethyl)carbamoyl]propyl}-3,6,9,12,15-pentaoxo-1,4,7,10,13-pentaazacyclopentadecan-2-yl]acetic acid]",5.8
5,"CC[C@@]1(O)C(=O)OCc2c1cc1n(c2=O)Cc2c-1nc1ccccc1c2CCC=NNC(=O)COCCOCCOCC(=O)NCc1ccc(C[C@@H]2NC(=O)[C@@H](Cc3ccccc3)NC(=O)[C@H](CC(=O)O)NC(=O)CNC(=O)[C@H](CCCN=C(N)N)NC2=O)cc1 [2-[(2S,5R,8S,11S)-5-benzyl-11-(3-carbamimidamidopropyl)-8-({4-[(2-{2-[2-({N'-[(1E)-3-[(19S)-19-ethyl-19-hydroxy-14,18-dioxo-17-oxa-3,13-diazapentacyclo[11.8.0.0^{2,11}.0^{4,9}.0^{15,20}]henicosa-1(21),2,4,6,8,10,15(20)-heptaen-10-yl]propylidene]hydrazinecarbonyl}methoxy)ethoxy]ethoxy}acetamido)methyl]phenyl}methyl)-3,6,9,12,15-pentaoxo-1,4,7,10,13-pentaazacyclopentadecan-2-yl]acetic acid]",11
6,"NNC(=O)COCCOCCOCC(=O)NCc1ccc([C@@H]2NC(=O)[C@@H](Cc3ccccc3)NC(=O)[C@H](CC(=O)O)NC(=O)CNC(=O)[C@H](CCCN=C(N)N)NC2=O)cc1 [2-((2S,5R,8S,11S)-5-benzyl-11-(3-guanidinopropyl)-8-(4-(13-hydrazinyl-3,13-dioxo-5,8,11-trioxa-2-azatridecyl)phenyl)-3,6,9,12,15-pentaoxo-1,4,7,10,13-pentaazacyclopentadecan-2-yl)acetic acid]",15.6
7,"CC[C@@]1(O)C(=O)OCc2c1cc1n(c2=O)Cc2c-1nc1ccccc1c2C=NNC(=O)COCCOCCOCC(=O)NCc1ccc(C[C@@H]2NC(=O)[C@@H](Cc3ccccc3)NC(=O)[C@H](CC(=O)O)NC(=O)CNC(=O)[C@H](CCCN=C(N)N)NC2=O)cc1 [2-[(2S,5R,8S,11S)-5-benzyl-11-(3-carbamimidamidopropyl)-8-({4-[(2-{2-[2-({N'-[(1E)-[(19S)-19-ethyl-19-hydroxy-14,18-dioxo-17-oxa-3,13-diazapentacyclo[11.8.0.0^{2,11}.0^{4,9}.0^{15,20}]henicosa-1(21),2,4,6,8,10,15(20)-heptaen-10-yl]methylidene]hydrazinecarbonyl}methoxy)ethoxy]ethoxy}acetamido)methyl]phenyl}methyl)-3,6,9,12,15-pentaoxo-1,4,7,10,13-pentaazacyclopentadecan-2-yl]acetic acid]",4.8
